Consider two compounds from ChEMBL document CHEMBL5653615 (J Biol Chem, 2013).

The target in experiment [1] is T1, Serine/threonine-protein kinase Nek2 (Homo sapiens) (UniProt P51955).
T1 sequence (whole entry): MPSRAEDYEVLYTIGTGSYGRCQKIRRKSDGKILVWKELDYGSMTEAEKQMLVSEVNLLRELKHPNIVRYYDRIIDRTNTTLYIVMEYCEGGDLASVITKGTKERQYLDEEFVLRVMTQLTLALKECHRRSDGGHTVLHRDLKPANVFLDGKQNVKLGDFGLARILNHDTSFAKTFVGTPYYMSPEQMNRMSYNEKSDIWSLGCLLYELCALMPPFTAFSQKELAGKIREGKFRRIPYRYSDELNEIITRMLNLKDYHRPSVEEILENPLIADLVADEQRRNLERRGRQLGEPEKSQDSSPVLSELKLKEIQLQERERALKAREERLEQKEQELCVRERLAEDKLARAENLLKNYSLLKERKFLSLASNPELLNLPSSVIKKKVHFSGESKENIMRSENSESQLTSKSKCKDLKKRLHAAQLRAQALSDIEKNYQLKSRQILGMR
The experiment in a line: Inhibition of human NEK2 at 1.82 nM by HotSpot assay relative to control.

The target in experiment [2] is T2, Serine/threonine-protein kinase Sgk2 (Homo sapiens) (UniProt Q9HBY8).
T2 sequence (whole entry): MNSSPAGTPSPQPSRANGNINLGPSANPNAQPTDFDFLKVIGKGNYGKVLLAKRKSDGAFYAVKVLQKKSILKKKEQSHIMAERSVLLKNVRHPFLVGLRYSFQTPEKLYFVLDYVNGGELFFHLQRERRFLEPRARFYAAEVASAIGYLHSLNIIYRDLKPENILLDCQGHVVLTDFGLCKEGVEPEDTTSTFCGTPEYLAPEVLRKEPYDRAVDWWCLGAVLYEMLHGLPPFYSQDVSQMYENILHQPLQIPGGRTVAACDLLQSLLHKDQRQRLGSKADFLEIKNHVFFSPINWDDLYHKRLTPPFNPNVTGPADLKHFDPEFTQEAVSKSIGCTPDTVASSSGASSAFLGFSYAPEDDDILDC
Briefly: Inhibition of human SGK2 at 1.82 nM by HotSpot assay relative to control.

The target in experiment [3] is Cyclin-dependent kinase 5/CDK5 activator 1 (Homo sapiens) (UniProt Q00535+Q15078). The experiment in a line: Inhibition of human CDK5/p35 at 1.82 nM by HotSpot assay relative to control. It is filed as protein-complex assay.
Cyclin-dependent kinase 5/CDK5 activator 1 (Homo sapiens), sequence (Q00535 whole entry): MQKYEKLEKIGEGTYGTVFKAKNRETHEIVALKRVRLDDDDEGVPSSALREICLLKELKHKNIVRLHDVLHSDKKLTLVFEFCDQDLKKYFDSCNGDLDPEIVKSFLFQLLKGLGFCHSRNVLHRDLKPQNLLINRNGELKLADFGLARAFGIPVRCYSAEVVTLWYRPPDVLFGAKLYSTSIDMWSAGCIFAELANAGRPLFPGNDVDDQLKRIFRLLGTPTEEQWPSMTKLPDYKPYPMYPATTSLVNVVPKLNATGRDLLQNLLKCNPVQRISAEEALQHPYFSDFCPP
Cyclin-dependent kinase 5/CDK5 activator 1 (Homo sapiens), sequence (Q15078 99-307 partner limits assumed): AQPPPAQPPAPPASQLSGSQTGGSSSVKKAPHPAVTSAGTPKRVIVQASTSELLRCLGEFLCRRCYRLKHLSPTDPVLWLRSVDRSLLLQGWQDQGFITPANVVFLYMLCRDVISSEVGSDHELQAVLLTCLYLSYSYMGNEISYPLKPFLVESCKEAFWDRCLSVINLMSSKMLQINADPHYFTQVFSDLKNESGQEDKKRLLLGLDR
Experiment [4] addresses T3, Serine/threonine-protein kinase 4 (Homo sapiens) (UniProt Q13043).
T3 sequence (whole entry): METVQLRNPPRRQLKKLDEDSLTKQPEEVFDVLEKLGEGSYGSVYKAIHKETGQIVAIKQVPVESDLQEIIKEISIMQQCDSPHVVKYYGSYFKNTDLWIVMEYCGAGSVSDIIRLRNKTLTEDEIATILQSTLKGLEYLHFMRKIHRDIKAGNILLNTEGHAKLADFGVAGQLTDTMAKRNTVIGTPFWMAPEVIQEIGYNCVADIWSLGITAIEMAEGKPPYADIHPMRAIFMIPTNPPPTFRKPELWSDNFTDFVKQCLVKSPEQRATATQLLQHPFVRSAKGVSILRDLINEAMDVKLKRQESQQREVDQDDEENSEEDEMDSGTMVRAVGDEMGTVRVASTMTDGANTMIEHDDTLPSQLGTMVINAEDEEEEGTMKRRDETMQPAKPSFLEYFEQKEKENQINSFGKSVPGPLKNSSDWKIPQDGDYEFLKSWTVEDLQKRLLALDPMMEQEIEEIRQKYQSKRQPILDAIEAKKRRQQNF
The experiment in a line: Inhibition of human STK4 at 1.82 nM by HotSpot assay relative to control.

For experiment [5], the target named is Glycogen synthase kinase-3 beta (Homo sapiens) (UniProt P49841). Briefly: Inhibition of human GSK3b at 1.82 nM by HotSpot assay relative to control.
Glycogen synthase kinase-3 beta (Homo sapiens), sequence (P49841 whole entry, looked up): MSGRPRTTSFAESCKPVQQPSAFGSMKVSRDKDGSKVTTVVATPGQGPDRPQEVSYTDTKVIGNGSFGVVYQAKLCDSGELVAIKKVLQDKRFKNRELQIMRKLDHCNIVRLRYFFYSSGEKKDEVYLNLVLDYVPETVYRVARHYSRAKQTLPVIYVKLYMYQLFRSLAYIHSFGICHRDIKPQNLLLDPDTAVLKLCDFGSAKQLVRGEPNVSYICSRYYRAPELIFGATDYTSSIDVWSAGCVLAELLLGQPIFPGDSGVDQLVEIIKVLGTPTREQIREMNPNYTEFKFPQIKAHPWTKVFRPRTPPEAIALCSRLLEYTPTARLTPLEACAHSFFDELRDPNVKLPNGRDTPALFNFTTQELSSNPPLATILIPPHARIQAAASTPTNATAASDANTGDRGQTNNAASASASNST
Experiment [6] concerns the target T4, Homeodomain-interacting protein kinase 4 (Homo sapiens) (UniProt Q8NE63).
T4 sequence (whole entry): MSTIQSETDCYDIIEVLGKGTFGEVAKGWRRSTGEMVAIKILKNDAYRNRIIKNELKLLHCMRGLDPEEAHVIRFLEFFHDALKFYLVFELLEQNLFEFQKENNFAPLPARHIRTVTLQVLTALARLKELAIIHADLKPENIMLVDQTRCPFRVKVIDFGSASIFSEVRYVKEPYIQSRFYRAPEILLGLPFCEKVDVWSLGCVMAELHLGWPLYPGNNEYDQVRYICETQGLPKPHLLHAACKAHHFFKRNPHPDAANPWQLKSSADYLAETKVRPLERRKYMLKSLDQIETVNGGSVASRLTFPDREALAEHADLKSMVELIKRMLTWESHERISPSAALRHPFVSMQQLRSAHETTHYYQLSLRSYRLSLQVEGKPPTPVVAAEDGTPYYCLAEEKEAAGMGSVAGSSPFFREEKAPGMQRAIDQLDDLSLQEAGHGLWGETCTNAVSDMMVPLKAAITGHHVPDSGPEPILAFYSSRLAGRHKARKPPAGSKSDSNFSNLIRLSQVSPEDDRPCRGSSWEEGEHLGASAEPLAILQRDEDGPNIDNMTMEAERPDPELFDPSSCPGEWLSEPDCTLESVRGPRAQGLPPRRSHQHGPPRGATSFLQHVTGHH
Briefly: Inhibition of human HIPK4 at 1.82 nM by HotSpot assay relative to control.

Experiment [7] has as its target T5, cGMP-dependent protein kinase 1 (Homo sapiens) (UniProt Q13976).
T5 sequence (whole entry): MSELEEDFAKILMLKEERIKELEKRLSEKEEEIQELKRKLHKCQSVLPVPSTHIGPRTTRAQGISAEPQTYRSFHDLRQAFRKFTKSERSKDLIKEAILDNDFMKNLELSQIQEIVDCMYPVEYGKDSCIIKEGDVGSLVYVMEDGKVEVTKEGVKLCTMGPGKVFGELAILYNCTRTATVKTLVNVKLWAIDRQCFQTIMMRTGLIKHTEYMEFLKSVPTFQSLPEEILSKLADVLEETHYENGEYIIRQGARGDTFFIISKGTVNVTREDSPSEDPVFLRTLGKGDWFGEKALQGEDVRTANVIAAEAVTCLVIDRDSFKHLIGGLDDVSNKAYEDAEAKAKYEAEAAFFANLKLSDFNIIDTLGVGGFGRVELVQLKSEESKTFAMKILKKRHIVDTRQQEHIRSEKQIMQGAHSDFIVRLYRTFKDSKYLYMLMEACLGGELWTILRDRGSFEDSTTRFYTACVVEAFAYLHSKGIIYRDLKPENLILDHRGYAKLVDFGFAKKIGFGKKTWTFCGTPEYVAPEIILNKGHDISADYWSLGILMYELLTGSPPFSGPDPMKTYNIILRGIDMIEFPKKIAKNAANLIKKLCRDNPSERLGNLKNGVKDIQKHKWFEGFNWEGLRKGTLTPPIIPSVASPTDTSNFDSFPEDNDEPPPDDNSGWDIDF
The experiment in a line: Inhibition of human PKG1b at 18.6 nM by HotSpot assay relative to control.

For experiment [8], the target named is Tyrosine-protein kinase BTK (Homo sapiens) (UniProt Q06187). Briefly: Inhibition of human BTK at 18.6 nM by HotSpot assay relative to control.
Tyrosine-protein kinase BTK (Homo sapiens), sequence (Q06187 whole entry): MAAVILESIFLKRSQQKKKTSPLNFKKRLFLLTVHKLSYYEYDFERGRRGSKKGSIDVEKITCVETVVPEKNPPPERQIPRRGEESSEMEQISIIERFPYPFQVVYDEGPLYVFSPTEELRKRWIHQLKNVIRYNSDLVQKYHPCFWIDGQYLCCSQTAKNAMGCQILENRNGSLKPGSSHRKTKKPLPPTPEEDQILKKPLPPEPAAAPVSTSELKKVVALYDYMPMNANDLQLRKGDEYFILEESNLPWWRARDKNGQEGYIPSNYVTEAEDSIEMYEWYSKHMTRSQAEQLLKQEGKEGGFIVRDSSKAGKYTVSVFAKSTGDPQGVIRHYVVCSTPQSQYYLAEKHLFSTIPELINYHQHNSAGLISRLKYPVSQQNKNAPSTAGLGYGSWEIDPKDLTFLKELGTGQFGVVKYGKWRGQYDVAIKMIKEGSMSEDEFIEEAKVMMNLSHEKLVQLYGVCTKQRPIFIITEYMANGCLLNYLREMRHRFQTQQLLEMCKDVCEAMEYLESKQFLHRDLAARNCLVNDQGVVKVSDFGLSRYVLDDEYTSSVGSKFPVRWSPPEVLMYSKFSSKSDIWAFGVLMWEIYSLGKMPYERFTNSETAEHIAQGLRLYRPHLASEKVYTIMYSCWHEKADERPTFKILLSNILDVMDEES

Broadly, the inhibition is the relative decrease from the control value, in per cent.

SMILES strings stand for the structures.

As for `C[C@@]1(C(=O)Nc2ccc(F)nc2)CCCN1c1nc(Nc2cc(C3CC3)n[nH]2)c2cccn2n1`, the inhibition in experiment [1] is 0.74%; in experiment [2], -0.21%; in experiment [3], 1.01%; in experiment [4], 9.85%; in experiment [5] it was 34.6%; in experiment [6] it was -0.23%.
On to `C[C@]1(O)C[C@@H](c2nc(-c3ccc4ccc(-c5ccccc5)nc4c3)c3c(N)nccn32)C1`, for which the inhibition in experiment [7] is -6.35%; in experiment [8], -1.94%.
